Legend:
Assay type in all cases: biochemical
human GST-DYRK1A = target: T1, human GST-DYRK1A (Homo sapiens, UniProt Q13627); experiment: GST-DYRK1A enzyme inhibition, ADP-Glo kinase assay; conditions: ATP 10 μM, GST-DYRK1A full length, read-out: DYRK1 IC50
T1 construct: purified human GST-DYRK1A (full length, Thermo Scientifics) enzyme; purchased Thermo Scientifics
Outline: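 Full-length human GST-DYRK1A (10 ng) with 10 μM ATP and specific substrate in 40 mM Tris-HCl pH 7.4, 20 mM MgCl2, 0.5 mg/mL BSA, 50 μM DTT, 1 h at 25 °C. ADP formation read by ADP-Glo luminescence relative to solvent control; IC50 from three data sets.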

human GST-CLK1 = target: T2, human GST-CLK1 (Homo sapiens, UniProt P49759); experiment: GST-CLK1 enzyme inhibition, ADP-Glo kinase assay; conditions: ATP 10 μM, GST-CLK1 129-end
T2 construct: purified human GST-CLK1 (129-end, SignalChem) enzyme; purchased SignalChem
T2 sequence (P49759 129-484 limits assumed): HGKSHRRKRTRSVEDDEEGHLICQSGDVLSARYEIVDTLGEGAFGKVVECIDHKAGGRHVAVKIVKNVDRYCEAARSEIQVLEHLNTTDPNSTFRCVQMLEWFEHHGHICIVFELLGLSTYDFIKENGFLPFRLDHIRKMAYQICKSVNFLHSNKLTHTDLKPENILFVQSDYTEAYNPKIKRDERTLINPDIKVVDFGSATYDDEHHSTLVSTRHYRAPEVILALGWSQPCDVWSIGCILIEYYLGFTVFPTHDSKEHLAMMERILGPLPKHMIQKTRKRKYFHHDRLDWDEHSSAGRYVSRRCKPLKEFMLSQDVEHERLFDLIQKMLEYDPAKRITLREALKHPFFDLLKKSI
Outline: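 Human GST-CLK1 (129-end, 3 ng) reacted with substrate and 10 μM ATP for 1 h at 25° C in 40 mM Tris-HCl pH 7.4, 20 mM MgCl2, 0.5 mg/mL BSA, 50 μM DTT. ADP-Glo luminescence was normalised to solvent control; IC50 (nM) from 3 data sets.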

LRRK2 (G2019S) = LRRK2 (G2019S) (Homo sapiens, UniProt Q5S007, G2019S); experiment: LRRK2 G2019S enzyme inhibition, ADP-Glo kinase assay; parameters: purchased SignalChem L10-12GG; conditions: ATP 25 μM
Chain of LRRK2 (G2019S) (Q5S007 970-2527 G2019S limits assumed): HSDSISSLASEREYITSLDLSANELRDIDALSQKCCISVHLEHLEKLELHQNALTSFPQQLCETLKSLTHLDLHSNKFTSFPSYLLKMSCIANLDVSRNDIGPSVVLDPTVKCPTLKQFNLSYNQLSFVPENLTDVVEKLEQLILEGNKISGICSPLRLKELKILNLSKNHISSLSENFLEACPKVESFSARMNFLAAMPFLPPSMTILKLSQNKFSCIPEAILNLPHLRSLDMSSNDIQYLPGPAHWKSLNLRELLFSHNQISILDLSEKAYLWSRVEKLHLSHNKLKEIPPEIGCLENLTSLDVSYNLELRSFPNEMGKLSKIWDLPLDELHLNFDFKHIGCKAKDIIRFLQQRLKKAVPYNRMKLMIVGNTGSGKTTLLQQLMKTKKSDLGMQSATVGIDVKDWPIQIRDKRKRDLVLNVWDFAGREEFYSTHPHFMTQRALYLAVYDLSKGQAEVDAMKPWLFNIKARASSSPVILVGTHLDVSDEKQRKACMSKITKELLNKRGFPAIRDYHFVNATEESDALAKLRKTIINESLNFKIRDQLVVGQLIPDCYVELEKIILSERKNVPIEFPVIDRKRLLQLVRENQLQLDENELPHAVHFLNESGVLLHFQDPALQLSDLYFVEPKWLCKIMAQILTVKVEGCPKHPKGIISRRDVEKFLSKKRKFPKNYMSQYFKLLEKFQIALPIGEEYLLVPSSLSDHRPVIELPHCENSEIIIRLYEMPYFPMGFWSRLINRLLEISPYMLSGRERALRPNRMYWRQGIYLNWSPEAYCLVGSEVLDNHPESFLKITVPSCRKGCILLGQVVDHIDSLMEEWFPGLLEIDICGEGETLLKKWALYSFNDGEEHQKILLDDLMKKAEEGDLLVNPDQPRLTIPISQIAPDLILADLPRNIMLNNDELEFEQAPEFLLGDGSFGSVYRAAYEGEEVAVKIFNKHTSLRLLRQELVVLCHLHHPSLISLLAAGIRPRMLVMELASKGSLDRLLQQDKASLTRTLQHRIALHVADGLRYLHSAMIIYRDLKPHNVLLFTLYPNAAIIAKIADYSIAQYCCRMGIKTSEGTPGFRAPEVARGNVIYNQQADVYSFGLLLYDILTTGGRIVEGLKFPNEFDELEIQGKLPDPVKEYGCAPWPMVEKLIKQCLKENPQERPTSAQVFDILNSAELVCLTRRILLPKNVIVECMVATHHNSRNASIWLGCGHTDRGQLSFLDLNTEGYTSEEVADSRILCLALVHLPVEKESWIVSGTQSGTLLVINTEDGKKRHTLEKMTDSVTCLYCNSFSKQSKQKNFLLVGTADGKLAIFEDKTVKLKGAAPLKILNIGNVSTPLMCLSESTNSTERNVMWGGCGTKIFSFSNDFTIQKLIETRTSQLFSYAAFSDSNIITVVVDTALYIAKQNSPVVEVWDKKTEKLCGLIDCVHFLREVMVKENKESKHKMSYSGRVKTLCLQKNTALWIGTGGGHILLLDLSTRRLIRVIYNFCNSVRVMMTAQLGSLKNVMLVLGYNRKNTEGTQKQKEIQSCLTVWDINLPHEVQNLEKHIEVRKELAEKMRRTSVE
Outline: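 Purified human LRRK2 G2019S (16 ng) with 25 μM ATP and 0.2 μg substrate, 2 h at 25° C. in Tris-HCl pH 7.4, MgCl2, BSA, DTT buffer; compounds at 12 final concentrations, 50 μM down to 0.000001024 μM. ADP-Glo luminescence versus solvent control gave IC50.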

LRRK2 = LRRK2 (Homo sapiens, UniProt Q5S007); experiment: LRRK2 enzyme inhibition, ADP-Glo kinase assay; parameters: purchased Invitrogen PR8604B; conditions: ATP 10 μM
Chain of LRRK2 (Q5S007 970-2527 limits assumed): as the sequence (Q5S007 970-2527 G2019S limits assumed) above, with S1050G counted along it
Outline: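 Purified human LRRK2 (25 ng) with 10 μM ATP and 0.2 μg substrate in 40 mM Tris-HCl pH 7.4, 20 mM MgCl2, 0.5 mg/mL BSA, 50 μM DTT, 2 h at 25° C. ADP-Glo luminescence; 12-point compound series from 50 μM final; IC50 relative to solvent control.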

IC50 (human GST-DYRK1A) [µM]	IC50 (human GST-CLK1) [µM]	IC50 (LRRK2 (G2019S)) [µM]	IC50 (LRRK2) [µM]	Compound
< 0.1	< 0.1	< 0.1	< 0.1	COCCNc1nc(Nc2ccc(C(=O)N3CCOCC3)c3c2OCCO3)nc2[nH]cc(C(F)(F)F)c12 [Example 168, (8-((4-((2-methoxyethyl)amino)-5-(trifluoromethyl)-7H-pyrrolo[2,3-d]pyrimidin-2-yl)amino)-2,3-dihydrobenzo[b][1,4]dioxin-5-yl)(morpholino)methanone]
0.301 to 1	0.301 to 1	< 0.1	< 0.1	COCCNc1nc(Nc2ccc(S(C)(=O)=O)cc2OC)nc2[nH]cc(C(F)(F)F)c12 [Example 171, N^2-(2-methoxy-4-(methylsulfonyl)phenyl)-N^4-(2-methoxyethyl)-5-(trifluoromethyl)-7H-pyrrolo[2,3-d]pyrimidine-2,4-diamine]
0.301 to 1	0.301 to 1	< 0.1	< 0.1	CC[C@@H](C)Nc1nc(Nc2ccc(C(=O)N3CCOCC3)c3c2OCCO3)nc2[nH]cc(C(F)(F)F)c12 [Example 174, (R)-(8-((4-(sec-butylamino)-5-(trifluoromethyl)-7H-pyrrolo[2,3-d]pyrimidin-2-yl)amino)-2,3-dihydrobenzo[b][1,4]dioxin-5-y)(morpholino)methanone]
0.301 to 1	0.301 to 1	0.301 to 1	0.301 to 1	COCC(C)(C)Nc1nc(Nc2ccc(S(C)(=O)=O)cc2OC)nc2[nH]cc(C(F)(F)F)c12 [Example 177, N^4-(1-methoxy-2-methylpropan-2-yl)-N^2-(2-methoxy-4-(methylsulfonyl)phenyl)-5-(trifluoromethyl)-7H-pyrrolo[2,3-d]pyrimidine-2,4-diamine]
0.301 to 1	0.301 to 1	< 0.1	< 0.1	COCC(C)(C)Nc1nc(Nc2ccc(C(=O)N3CCOCC3)c3c2OCCO3)nc2[nH]cc(C(F)(F)F)c12 [Example 178, (8-((4-((1-methoxy-2-methylpropan-2-yl)amino)-5-(trifluoromethyl)-7H-pyrrolo[2,3-d]pyrimidin-2-yl)amino)-2,3-dihydrobenzo[b][1,4]dioxin-5-yl)(morpholino)methanone]
0.301 to 1	0.301 to 1	0.101 to 0.3	< 0.1	COc1cc(S(=O)(=O)N2CCC(N3CCOCC3)CC2)ccc1Nc1nc(NCC(C)C)c2c(C(F)(F)F)c[nH]c2n1 [Example 179, N^4-isobutyl-N^2-(2-methoxy-4-((4-morpholinopiperidin-1-yl)sulfonyl)phenyl)-5-(trifluoromethyl)-7H-pyrrolo[2,3-d]pyrimidine-2,4-diamine]
0.301 to 1	0.301 to 1	0.101 to 0.3	0.101 to 0.3	CCCNc1nc(Nc2ccc(S(C)(=O)=O)cc2OC)nc2[nH]cc(C(F)(F)F)c12 [Example 181, N^2-(2-methoxy-4-(methylsulfonyl)phenyl)-N^4-propyl-5-(trifluoromethyl)-7H-pyrrolo[2,3-d]pyrimidine-2,4-diamine]
0.301 to 1	0.301 to 1	< 0.1	< 0.1	O=C(c1ccc(Nc2nc(NC3CC3)c3c(C(F)(F)F)c[nH]c3n2)c2c1OCCO2)N1CCOCC1 [Example 182, (8-((4-(cyclopropylamino)-5-(trifluoromethyl)-7H-pyrrolo[2,3-d]pyrimidin-2-yl)amino)-2,3-dihydrobenzo[b][1,4]dioxin-5-yl)(morpholino)methanone]
0.301 to 1	0.101 to 0.3	0.101 to 0.3	< 0.1	COc1cc(S(C)(=O)=O)ccc1Nc1nc(NC2CCC2)c2c(C(F)(F)F)c[nH]c2n1 [Example 184, N^4-cyclobutyl-N^2-(2-methoxy-4-(methylsulfonyl)phenyl)-5-(trifluoromethyl)-7H-pyrrolo[2,3-d]pyrimidine-2,4-diamine]
0.301 to 1	0.101 to 0.3	0.101 to 0.3	< 0.1	O=C(c1ccc(Nc2nc(NC3CCC3)c3c(C(F)(F)F)c[nH]c3n2)c2c1OCCO2)N1CCOCC1 [Example 185, (8-((4-(cyclobutylamino)-5-(trifluoromethyl)-7H-pyrrolo[2,3-d]pyrimidin-2-yl)amino)-2,3-dihydrobenzo[b][1,4]dioxin-5-yl)(morpholino)methanone]
0.301 to 1	0.301 to 1	0.301 to 1	0.301 to 1	COCCNc1nc(Nc2ccc(C(=O)N3CCOCC3)c3c2OCCO3)nc2[nH]cc(C(N)=O)c12 [Example 235, 4-((2-methoxyethyl)amino)-2-((8-(morpholine-4-carbonyl)-2,3-dihydrobenzo[b][1,4]dioxin-5-yl)amino)-7H-pyrrolo[2,3-d]pyrimidine-5-carboxamide]
0.301 to 1	0.301 to 1	< 0.1	< 0.1	C=CCNc1nc(Nc2ccc(S(=O)(=O)N3CCOCC3)cc2OC)nc2[nH]ccc12 [Example 246, N4-allyl-N2-(2-methoxy-4-(morpholinosulfonyl)phenyl)-7H-pyrrolo[2,3-d]pyrimidine-2,4-diamine]
0.301 to 1	0.301 to 1	< 0.1	< 0.1	C=CCNc1nc(Nc2ccc(S(=O)(=O)N3CCC(N4CCOCC4)CC3)cc2OC)nc2[nH]ccc12 [Example 247, N4-allyl-N2-(2-methoxy-4-((4-morpholinopiperidin-1-yl)sulfonyl)phenyl)-7H-pyrrolo[2,3-d]pyrimidine-2,4-diamine]
0.301 to 1	0.301 to 1	< 0.1	< 0.1	N#Cc1c[nH]c2nc(Nc3ccc(C(=O)N4CCC(N5CCOCC5)CC4)c4c3OCCO4)nc(NC3CCCCC3)c12 [Example 251, 4-(cyclohexylamino)-2-((8-(4-morpholinopiperidine-1-carbonyl)-2,3-dihydrobenzo[b][1,4]dioxin-5-yl)amino)-7H-pyrrolo[2,3-d]pyrimidine-5-carbonitrile]
0.301 to 1	0.301 to 1	< 0.1	< 0.1	CNc1nc(Nc2ccc(S(C)(=O)=O)cc2OC)nc2[nH]cc(C#N)c12 [Example 257, 2-((2-methoxy-4-(methylsulfonyl)phenyl)amino)-4-(methylamino)-7H-pyrrolo[2,3-d]pyrimidine-5-carbonitrile]
0.101 to 0.3	< 0.1	< 0.1	< 0.1	N#Cc1c[nH]c2nc(Nc3ccc(C(=O)N4CCC(N5CCOCC5)CC4)c4c3OCCO4)nc(NC3CCC3)c12 [Example 259, 4-(cyclobutylamino)-2-((8-(4-morpholinopiperidine-1-carbonyl)-2,3-dihydrobenzo[b][1,4]dioxin-5-yl)amino)-7H-pyrrolo[2,3-d]pyrimidine-5-carbonitrile]
0.101 to 0.3	< 0.1	< 0.1	< 0.1	CCNc1nc(Nc2ccc(C(=O)N3CCC(N4CCOCC4)CC3)c3c2OCCO3)nc2[nH]cc(C(F)(F)F)c12 [Example 363, (8-((4-(ethylamino)-5-(trifluoromethyl)-7H-pyrrolo[2,3-d]pyrimidin-2-yl)amino)-2,3-dihydro-benzo[b][1,4]dioxin-5-yl)(4-morpholino-piperidin-1-yl)methanone]
< 0.1	< 0.1	< 0.1	< 0.1	CCCNc1nc(Nc2ccc(C(=O)N3CCC(N4CCOCC4)CC3)c3c2OCCO3)nc2[nH]cc(C(F)(F)F)c12 [Example 364, (4-morpholino-piperidin-1-yl)(8-((4-(propylamino)-5-(trifluoromethyl)-7H-pyrrolo[2,3-d]pyrimidin-2-yl)amino)-2,3-dihydrobenzo[b] [1,4]dioxin-5-yl)methanone]
0.101 to 0.3	< 0.1	< 0.1	< 0.1	O=C(c1ccc(Nc2nc(NC3CC3)c3c(C(F)(F)F)c[nH]c3n2)c2c1OCCO2)N1CCC(N2CCOCC2)CC1 [Example 367, (8-((4-(cyclopropyl-amino)-5-(trifluoromethyl)-7H-pyrrolo[2,3-d]pyrimidin-2-yl)amino)-2,3-dihydrobenzo[b] [1,4]dioxin-5-yl)(4-morpho-linopiperidin-1-yl)methanone]
0.301 to 1	0.101 to 0.3	< 0.1	< 0.1	COc1cc(S(C)(=O)=O)ccc1Nc1nc(NC2CC2)c2c(C(F)(F)F)c[nH]c2n1 [Example 376, N^4-cyclopropyl-N^2-(2-methoxy-4-(methylsulfonyl)phenyl)-5-(trifluoromethyl)-7H-pyrrolo[2,3-d]pyrimidine-2,4-diamine]
